Data on four molecules can be found in article PMC4532830, “Crystal structure, biochemical and cellular activities demonstrate separate functions of MTH1 and MTH2” (Nature Communications, 2015).

Read-outs that look alike come from different tables or passages of the source.

For one data set, the target named is T1, NUDT18 (Homo sapiens, UniProt Q6ZVK8).
T1 construct: recombinant, cDNA codon-optimized for E. coli in pET28a(+); His-tag removed by TEV or thrombin
T1 sequence (Q6ZVK8 1-323): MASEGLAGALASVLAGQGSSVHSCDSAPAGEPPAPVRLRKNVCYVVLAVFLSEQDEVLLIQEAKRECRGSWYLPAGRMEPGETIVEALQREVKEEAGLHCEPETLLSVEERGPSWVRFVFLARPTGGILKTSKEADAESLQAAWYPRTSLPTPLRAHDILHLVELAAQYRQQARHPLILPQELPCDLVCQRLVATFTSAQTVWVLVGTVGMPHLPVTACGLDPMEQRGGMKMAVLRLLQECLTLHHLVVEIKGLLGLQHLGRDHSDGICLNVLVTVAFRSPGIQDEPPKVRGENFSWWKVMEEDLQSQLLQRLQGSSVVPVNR
Kind of data set: phosphate release, malachite green assay. The format is biochemical. The following applies: 50 uM nucleotide, 25 nM enzyme, 22 C, 30 min, pH 8.0, 10 mM Mg acetate; which of 8-oxo-dGTP or 8-oxo-dGDP belongs to NUDT18 is not spelt out.

A further data set has as its target T2, MTH1 (Homo sapiens, UniProt P36639).
T2 construct: gene NUDT1
The following applies: pH 7.5 but methods buffer pH 8.0, 10 mM Mg acetate, unit assumed.

Data set [1] deals with the molecule itself. Nature of the data set: SEC; 10/300 GL S75 column, 20 mM HEPES pH 7.5, 300 mM NaCl, 10% glycerol, 0.5 mM TCEP; 0.24 mg NUDT15 in 500 ul.

Regarding `Nc1nc2c([nH]c(=O)n2[C@H]2C[C@H](O)[C@@H](COP(=O)(O)OP(=O)(O)O)O2)c(=O)[nH]1` [8-oxo-dGDP], on NUDT18, the “phosphate release, malachite green assay” value was “NUDT15 and NUDT18 have the ability to hydrolyse 8-oxo-dGTP or 8-oxo-dGDP in biochemical assays”.
With `Nc1nc2c(ncn2[C@H]2C[C@H](O)[C@@H](COP(=O)(O)OP(=O)(O)OP(=O)(O)O)O2)c(=O)[nH]1` [dGTP, 2′-Deoxyguanosine-5′-triphosphate], the Km on MTH1 (0-400 uM dGTP, 2 nM enzyme) was 110 ± 35 µM.
With `Nc1nc2c([nH]c(=O)n2[C@H]2C[C@H](O)[C@@H](COP(=O)(O)OP(=O)(O)OP(=O)(O)O)O2)c(=O)[nH]1` [8-oxo-dGTP], the Km on MTH1 (0-100 uM 8-oxo-dGTP, 0.25 nM enzyme) came out at 10.2 ± 0.8 µM.

B1: NUDT15 (enzyme, human, UniProt Q9NV35 1-164, looked up)
chain: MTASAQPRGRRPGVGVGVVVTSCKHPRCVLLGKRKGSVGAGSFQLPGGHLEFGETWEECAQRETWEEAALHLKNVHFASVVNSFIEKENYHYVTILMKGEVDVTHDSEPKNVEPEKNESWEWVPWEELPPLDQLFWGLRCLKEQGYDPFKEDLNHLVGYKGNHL
notes: NUDT15 (MTH2), human, full length; expression construct pNIC28hNUDT15 from the Structural Genome Consortium; The His-tag was removed by TEV protease or thrombin; Crystals grew in the presence of alpha-chymotrypsin, so the chain in the crystal may be shorter than full length; also called MTH2; MutT homologue 2; source: E. coli BL21 (DE3) T1R pRARE2, purified (HisTrap HP, gel filtration Superdex 75)
In the case of B1, in data set [1], the “stoichiometry N” value turned out to be 2.

The term Km denotes the concentration of substrate that gives half-maximal velocity. Usually stoichiometry N stands for the number of molecules, sites or subunits per partner or assembly.
